The values that follow come from PubChem BioAssay AID2286 (Southern Research Specialized Biocontainment Screening …, 2010).

Assay [1] is described as follows: viability loss in fusion assay cells – cell-based, MAGI and MAGI-HeLa co-culture, cytotoxicity control for HIV-1 fusion inhibitor project, dose response (AID 2286).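 On all read-outs here: cells exposed to compound for at least 64 h before ATP readout.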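 On minimum viability: 100% = median of DMSO vehicle wells with no ATP signal meaning 0%.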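 On viability: 100% = median of DMSO vehicle wells with no ATP signal meaning 0%.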 As to conditions: MAGI-CCR5 cells viability, CellTiter-Glo ATP luminescence; for minimum viability: measured here: MAGI minimum viability across doses.
The test system of assay [2] is MAGI-CCR5 cells viability, CellTiter-Glo ATP luminescence. Described as above.
The mark [3] stands for this setting: MAGI-HeLa co-culture viability, at 50 µM, stronger effect = lower value.
Setting [4] is: measured here: MAGI + HeLa-R5-16 co-culture viability.

The source made the active and inactive calls.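 How the source made its calls: active means minimum cell viability of 80% or lower across the dose range, counted as toxic; inactive means minimum cell viability above 80%.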

Regarding `O=[N+]([O-])c1cccc(S(=O)(=O)Nc2nc3ccccc3nc2Nc2cccc(S(=O)(=O)N3CCCCC3)c2)c1`, the viability in assay [1] (setting [3]) turned out to be 20.4%. In assay [1] (at 50 µM, stronger effect = lower value), this molecule registered a minimum viability of 19.9%. The CC50 in assay [2] is 7.22 µM; in assay [2] (setting [4]), 14.1 µM.
For the molecule `Brc1ccc(N/N=C(/N=Nc2nn[nH]n2)c2ccccc2)cc1`, the viability in assay [1] (setting [3]) was determined as 20.1%. This molecule also registered a minimum viability in assay [1] (at 50 µM, stronger effect = lower value) of 44.6%. Moreover, the 50% cytotoxic concentration (CC50) is 32.8 µM in assay [2] and 23.5 µM in assay [2] (setting [4]).
Consider `O=C(O)c1cc(-c2ccc(-c3c(-c4ccc5c(c4)OCO5)noc3-c3ccsc3)cc2)nc2ccccc12`, for which, in assay [1] (setting [3]), the viability came to 64.8%. The minimum viability in assay [1] (at 50 µM, stronger effect = lower value) turned out to be 40.9%. For the same molecule, the figures for the CC50 in assay [2] and in assay [2] (setting [4]) were 32.5 µM and above 50 µM, respectively.
`O=C(Nc1ccccc1Cc1ccccc1)c1ccccc1NS(=O)(=O)c1ccc(Cl)s1`: in assay [1] (setting [3]), the viability was determined as 26.2%. This molecule also returned a minimum viability in assay [1] (at 12.5 µM, stronger effect = lower value) of 15.3%. For the same molecule, the 50% cytotoxic concentration (CC50) is 1.68 µM in assay [2] and 5.85 µM in assay [2] (setting [4]).
For `CCCCCCCCCCCCCCCCn1cc[n+](CC(C)=O)c1`, the viability in assay [1] (setting [3]) was 3.56%. The molecule further yielded a minimum viability in assay [1] (at 50 µM, stronger effect = lower value) of 2.77%. Also, the cytotoxic concentration (CC50) was 1.36 µM in assay [2] and 2.09 µM in assay [2] (setting [4]).
On to `CC(C)(C)c1ccc(S(=O)(=O)/N=C2\C=C(NS(=O)(=O)c3ccccc3)C(=O)c3ccccc32)cc1`, for which the viability in assay [1] (setting [3]) stood at 51.2%. The same molecule showed a minimum viability in assay [1] (at 50 µM, stronger effect = lower value) of 51.5%. Further, in assay [2] (setting [4]), the CC50 is above 50 µM.
For the molecule `O=C(OCC1OC(n2ncc(=O)[nH]c2=O)C(OC(=O)c2ccccc2)C1OC(=O)c1ccccc1)c1ccccc1` (stereo not drawn), the viability in assay [1] (setting [3]) worked out at 111%. For the same molecule, the minimum viability in assay [1] (at 50 µM, stronger effect = lower value) amounted to 44%. In assay [2], the CC50 is 42.2 µM.
For the molecule `CCCOc1cccc(C2C(C(=O)c3cc4ccccc4o3)=C(O)C(=O)N2c2cc(C)on2)c1` (stereo not drawn), the viability in assay [1] (setting [3]) was 90.1%. The same molecule came in with a minimum viability in assay [1] (at 50 µM, stronger effect = lower value) of 49.1%. Further, the CC50 in assay [2] is 49.8 µM.
Regarding `O=C1/C(=C\c2ccc(O)c(O)c2)C(c2ccccc2)=NN1c1ccccc1`, the viability in assay [1] (setting [3]) came to 34.7%. Further, the minimum viability in assay [1] (at 50 µM, stronger effect = lower value) is 28.1%. Further, the CC50 is 38.4 µM in assay [2] and 48.7 µM in assay [2] (setting [4]).
Take `O=C(O)c1ccc(N/N=C/c2ccc(-c3cccc(Cl)c3)o2)cc1`: the viability in assay [1] (setting [3]) came out at 10.1%. In assay [1] (at 50 µM, stronger effect = lower value), the minimum viability came out at 21.6%. Moreover, the CC50 in assay [2] was 10.3 µM; in assay [2] (setting [4]), 2.83 µM.
In the case of `Cc1cc(Cl)ccc1OC(C)C(=O)Nc1ccc(C(=O)Nc2ccccc2C(=O)O)cc1` (stereo not drawn), the viability in assay [1] (setting [3]) is 63.6%. Moreover, the minimum viability in assay [1] (at 50 µM, stronger effect = lower value) was 49.8%. Further, the CC50 is 48.8 µM in assay [2] and above 50 µM in assay [2] (setting [4]).
For `CC(/C=C1\SC(=S)N(CCCC(=O)Nc2ccc(C(=O)O)cc2)C1=O)=C\c1ccccc1`, the viability in assay [1] (setting [3]) is 69.6%. Further, in assay [1] (at 50 µM, stronger effect = lower value), the minimum viability was 60.9%. In addition, the half-maximal cytotoxic concentration (CC50) in assay [2] (setting [4]) was above 50 µM.
On to `CCOc1cc(/C=C2\C(=N)N3N=C(S(C)(=O)=O)SC3=NC2=O)ccc1OCCOc1cccc(OC)c1`, for which, in assay [1] (setting [3]), the viability came out at 47.3%. The molecule further registered a minimum viability in assay [1] (at 50 µM, stronger effect = lower value) of 78%. In addition, the cytotoxic concentration (CC50) in assay [2] (setting [4]) turned out to be 43.2 µM.
The like results for `CSc1nnc(-c2ccccc2N=Cc2c(C)[nH]n(-c3ccc4ccccc4c3)c2=O)c(=O)[nH]1` were, in that order, 55.5%, 53.7% and above 50 µM.
With `CC1(c2ccccc2)CC(C)(C)N2C(=O)/C(=C3\SC(=S)NC3=O)c3cccc1c32` (stereo not drawn), the viability in assay [1] (setting [3]) is 40.9%. In assay [1] (at 50 µM, stronger effect = lower value), this molecule gave a minimum viability of 22.5%. Besides, the CC50 is 14.1 µM in assay [2] and 37 µM in assay [2] (setting [4]).
With `C=CC#CC[N+]1(CC#Cc2ccccc2)CCOCC1`, the viability in assay [1] (setting [3]) worked out at 70%. Moreover, the minimum viability in assay [1] (at 50 µM, stronger effect = lower value) was 76.2%. In addition, the CC50 in assay [2] (setting [4]) was above 50 µM.
Take `O=C(O)C1Nc2c(O)cccc2C2C=CCC12` (stereo not drawn): the viability in assay [1] (setting [3]) was 21.6%. The molecule further came in with a minimum viability in assay [1] (at 50 µM, stronger effect = lower value) of 23%. Besides, the CC50 in assay [2] was 18.6 µM; in assay [2] (setting [4]), 22.4 µM.
Take `Cc1ccccc1C(=O)Nc1cccc(C(=O)N/N=C/c2cc(Cl)cc([N+](=O)[O-])c2O)c1`: in assay [1] (setting [3]), the viability was 68.4%. For the same molecule, in assay [1] (at 50 µM, stronger effect = lower value), the minimum viability worked out at 52.8%. Moreover, the CC50 in assay [2] (setting [4]) is above 50 µM.
With `CCOc1cc(/C=C2\C(=O)N(c3cccc(C(=O)O)c3)N=C2C(F)(F)F)ccc1OCC(=O)Nc1ccccc1OC`, the values for the viability in assay [1] (setting [3]) and in assay [1] (at 25 µM (top of the series)) were 51.6% and 88.7% (inactive), respectively. The minimum viability in assay [1] (at 6.25 µM, stronger effect = lower value) is 85.3%. Further, in assay [2] (setting [4]), the CC50 was 47.3 µM.
